Structures can show the parent of a compound that is named as a salt.
What follows are compounds tested on von Bezold-Jarisch reflex evoked by 5-HT (assay: Antagonism of the von Bezold-Jarisch reflex evoked by 5-HT in the anaesthetised rat). Conditions: iv, male rats, urethane anaesthesia, compounds intravenously, 5-HT usually 6 μg/kg i.v., heart rate changes, read-out: ED50 (concentration required to reduce the 5HT-evoked response to 50% of the control response).
Format: in vivo
Procedure: Antagonism of the von Bezold-Jarisch reflex
The compounds were evaluated for antagonism of the von Bezold-Jarisch reflex evoked by 5-HT in the anaesthetised rat according to the following method:
Male rats, 250-350 g, were anaesthetised with urethane (1.25 g/kg intraperitoneally) and blood pressure and heart rate recorded as described by Fozard J. R. et al., J. Cardiovasc. Pharmacol. 2, 229-245 (1980). A submaximal dose of 5-HT (usually 6 μg/kg) was given repeatedly by the intravenous route and changes in heart rate quantified. Compounds were given intravenously and the concentration required to reduce the 5HT-evoked response to 50% of the control response (ED50) was then determined.
`O=C(NC1CN2CCC1CC2)N1CC(c2ccccc2)c2ccccc21` (stereo not shown) [Compound 8, N-(1-Azabicyclo[2.2.2]oct-3-yl)2,3-dihydro-3-phenylindol-1-yl urea hydrochloride] showed an ED50 of 1.2 µg/kg. Compound `CN1[C@@H]2CC[C@H]1C[C@@H](NC(=O)N1CC3(CCCCC3)c3ccccc31)C2` [Compound 1] has an ED50 of 3.6 µg/kg. Compound `CN1[C@@H]2CC[C@H]1C[C@@H](NC(=O)N1CC3(CC3)c3ccccc31)C2` [Compound 6] has an ED50 of 3.5 µg/kg. With `CN1[C@@H]2CC[C@H]1C[C@@H](NC(=O)N1CC3(CCCC3)c3ccccc31)C2` [Compound 10] the ED50 was 1.8 µg/kg.

From patent publication US4920127A, “Substituted indoles and their use as 5-HT3 receptor antagonists” (Beecham Group p.l.c., priority 1987, dated 1990)
